The text below walks through data of ChEMBL document CHEMBL3271943, “P-Aminobenzoic acid derivatives. Mode of action and structure-activity relationships in a cell-free system (Escherichia coli)” (J Med Chem, 1977).

Calls of active or inactive are those of the source. The calls are words filed in the database; no cut-off is given here.

One data set addresses Albumin (Homo sapiens, UniProt P02768). In words: Binding affinity to human serum albumin at 100 umol/l by equilibrium dialysis technique. In kind it is ADME. To be noted: isolated protein, 100 µM.
Data set [1] deals with Escherichia coli. Description: microbe, parasite or virus in culture. The conditions noted are these: 24 h, read-out: ID50.
Description: Antimicrobial activity against Escherichia coli assessed as growth inhibition after 24 hrs by turbidimetric analysis
The conditions of data set [2]: octanol/water.
Description: Lipophilic-hydrophilic balance, Rm of the compound by TLC analysis
Data set [3] in a line: physchem.
Description: Dissociation constant, pKa of the compound by spectrophotometric analysis
Data set [4] deals with Escherichia coli. Description: Inhibition of Escherichia coli dihydropteroic acid synthesizing system-mediated folate production at 50 to 250 umol/l.
Data set [5] is described as follows: physchem. To be noted: aqueous solution.
Description: Hydrolytic dissociation constant, pKa of the compound in aqueous solution at 50 degC
For data set [6] the following is noted: buffer.
Description: Solubility of the compound in water
In data set [7] the test system is Enterococcus faecalis. In words: Induction of Streptococcus faecalis growth. In kind it is functional, organism-based.
The subject of data set [8] is Enterococcus faecalis. In words: Growth inhibition of Streptococcus faecalis. It counts as functional, organism-based.
The subject of data set [9] is Escherichia coli. Description: Reversal of sulfapyridine-mediated growth inhibition of Escherichia coli at 4 to 400 umol/l. It counts as functional, organism-based.
Data set [10] has as its system Escherichia coli. Description: Reversal of sulfabenzene-mediated growth inhibition of Escherichia coli at 4 to 400 umol/l. In kind it is functional, organism-based.

Chain of Albumin (P02768 whole entry): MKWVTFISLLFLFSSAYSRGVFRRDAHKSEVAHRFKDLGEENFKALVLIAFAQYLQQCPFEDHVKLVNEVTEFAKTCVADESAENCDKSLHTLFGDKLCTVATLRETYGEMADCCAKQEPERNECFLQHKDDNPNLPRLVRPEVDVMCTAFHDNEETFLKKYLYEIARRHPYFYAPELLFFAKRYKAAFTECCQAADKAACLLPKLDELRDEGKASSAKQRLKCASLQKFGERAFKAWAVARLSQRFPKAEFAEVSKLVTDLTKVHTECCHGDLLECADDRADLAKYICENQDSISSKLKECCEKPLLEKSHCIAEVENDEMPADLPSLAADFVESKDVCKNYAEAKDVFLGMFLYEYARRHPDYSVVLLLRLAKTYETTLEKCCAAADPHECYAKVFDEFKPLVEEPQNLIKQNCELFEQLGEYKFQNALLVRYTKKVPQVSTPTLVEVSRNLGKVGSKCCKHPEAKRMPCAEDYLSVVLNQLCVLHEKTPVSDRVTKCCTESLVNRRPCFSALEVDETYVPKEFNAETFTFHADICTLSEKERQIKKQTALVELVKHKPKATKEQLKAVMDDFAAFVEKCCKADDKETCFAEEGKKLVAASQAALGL

Turning to `Nc1ccc(C(=O)O)cc1C(=O)O`, the “log(PB)” value on Albumin is 1.82. For the same compound, the IC50 with Escherichia coli [1] is 120 µM.
Regarding `Nc1ccc(C(=O)O)c(F)c1`, at Albumin, the “log(PB)” value stood at 1.27. The compound further came in with a Rm in data set [2] of 1.62. For the same compound, in the data set “physchem [3]”, the pKa is 4.13. In the data set with Escherichia coli [1], the IC50 was 125 µM.
In the case of `Nc1ccc(C(=O)O)c(Cl)c1`, on Albumin, the “log(PB)” value was determined as 1.36. The inhibition result in the data set on Escherichia coli [4] is “inactive”. Moreover, the Rm in data set [2] is recorded as 2.17. Further, the pKa in the data set “physchem [3]” came to 3.88; in “physchem [5]” it was 3.93. Further, the IC50 in the data set with Escherichia coli [1] came out at 45 µM.
With `CCCOc1cc(N)ccc1C(=O)O`, the “log(PB)” value at Albumin is 1.69. Also, in data set [2], the Rm was determined as 1.75. In [6], the solubility entry is recorded as “soluble”. This compound yielded a pKa in the data set “physchem [3]” of 4.96. Further, in the data set on Escherichia coli [1], the IC50 came to 140 µM.
`Nc1ccc(C(=O)O)cc1F`: the “log(PB)” value on Albumin is recorded as 1.52. In addition, in the data set with Escherichia coli [4], the inhibition entry is “Active”. The compound also returned a Rm in data set [2] of 1.66. Also, in the data set “physchem [3]”, the pKa was 4.35. Also, in the data set on Escherichia coli [1], the IC50 was 13 µM.
`Nc1ccc(C(=O)O)cc1[N+](=O)[O-]`: on Albumin, the “log(PB)” value amounted to 1.89. In data set [2], this compound had a Rm of 3.11. Besides, the solubility result in [6] was “soluble”. For the same compound, the pKa in the data set “physchem [3]” worked out at 3.96. Besides, the IC50 with Escherichia coli [1] came to 130 µM.
With `Cl.Nc1ccc(C(=O)O)c(Br)c1`, the “log(PB)” value at Albumin worked out at 1.67. The compound also came in with a Rm in data set [2] of 2.38. Further, the pKa in “physchem [3]” was 3.69; in the data set “physchem [5]” it was 3.85. For the same compound, the IC50 with Escherichia coli [1] is 8 µM.
`Nc1ccc(C(=O)O)cc1C(=O)c1ccccc1`: the solubility entry in data set [6] is “soluble”. For the same compound, in “physchem [3]”, the pKa was 4.34. In the data set with Escherichia coli [1], the IC50 was 105 µM.
Turning to `Nc1ccc(C(=O)O)c(O)c1` [AMINOSALICYLIC ACID], the “log(PB)” value at Albumin is 1.57. Moreover, in the data set on Escherichia coli [4], the inhibition result is “inactive”. Moreover, the Rm in [2] is reported as 1.92. In addition, the pKa was 3.52 in “physchem [3]” and 3.62 in “physchem [5]”. In the data set with Escherichia coli [1], the IC50 is 25 µM.
In turn, `CCCCCCCCOc1cc(N)ccc1C(=O)O` showed a Rm in data set [2] of 4.25. Besides, the solubility entry in data set [6] is given as “soluble”. Moreover, the pKa in the data set “physchem [3]” was 5.4. Besides, the IC50 in the data set on Escherichia coli [1] came out at 25 µM.
As to `CCCCCOc1cc(N)ccc1C(=O)O`, on Albumin, the “log(PB)” value is on record as 1.76. The Rm in data set [2] worked out at 2.85. Also, the solubility entry in data set [6] is reported as “soluble”. This compound also yielded a pKa in “physchem [3]” of 5.1. Moreover, the IC50 in the data set on Escherichia coli [1] was determined as 135 µM.
For `Nc1ccc(C(=O)O)cc1O`, the “log(PB)” value at Albumin is 1.27. The compound also came in with a pKa in the data set “physchem [3]” of 4.59. In addition, in the data set on Escherichia coli [1], the IC50 turned out to be 85 µM.
In the case of `Nc1ccc(C(=O)O)cc1` [AMINOBENZOIC ACID], the Rm in data set [2] came to 1.21. The same compound displayed a pKa in the data set “physchem [5]” of 4.67.
In the case of `CCCCCCOc1cc(C(=O)O)ccc1N`, the “log(PB)” value on Albumin is on record as 1.97. Moreover, in the data set on Escherichia coli [4], the inhibition result is “inactive”. Moreover, the solubility entry in data set [6] is on record as “soluble”. The same compound yielded a pKa in “physchem [3]” of 4.47. Further, the IC50 in the data set on Escherichia coli [1] was 85 µM.
Turning to `Cl.Nc1ccc(C(=O)O)c(I)c1`, at Albumin, the “log(PB)” value is given as 1.79. In data set [2], this compound had a Rm of 2.4. In “physchem [3]”, this compound displayed a pKa of 3.81. In addition, the IC50 in the data set with Escherichia coli [1] is 30 µM.
On to `Nc1nc(=O)c2nc(CNc3ccc(C(=O)O)c(Cl)c3)cnc2[nH]1`, for which, in the data set on Enterococcus faecalis [7], the outcome was inactive. In addition, the “growth inhibition (GI)” value in the data set on Enterococcus faecalis [8] was “inactive”.
Consider `Cc1cc(C(=O)O)ccc1N`, for which the “log(PB)” value at Albumin was 1.37. The Rm in data set [2] turned out to be 1.6. This compound also registered a pKa in the data set “physchem [3]” of 4.62. The IC50 in the data set with Escherichia coli [1] came to 120 µM.
As for `C=CCOc1cc(N)ccc1C(=O)O`, the “log(PB)” value at Albumin amounted to 1.63. The compound also gave a Rm in data set [2] of 1.68. The solubility entry in data set [6] is “soluble”. In the data set “physchem [3]”, this compound returned a pKa of 5.01. The IC50 with Escherichia coli [1] was 125 µM.
On to `Nc1ccc(C(=O)O)cc1I`, for which the “log(PB)” value at Albumin is given as 1.92. The Rm in data set [2] amounted to 2.95. The compound also came in with a pKa in the data set “physchem [3]” of 4.34. The IC50 in the data set on Escherichia coli [1] came to 110 µM.
Take `Nc1nc(O)c2c(n1)NCC(CNc1ccc(C(=O)O)c(Cl)c1)=N2`: the result in the data set on Escherichia coli [9] and in the data set with Escherichia coli [10] was Active.
In data set [2], `CC(C)CCOc1cc(N)ccc1C(=O)O` returned a Rm of 2.7. In addition, in data set [6], the solubility entry is on record as “soluble”. Also, in the data set “physchem [3]”, the pKa was 5.17. Also, the IC50 in the data set on Escherichia coli [1] turned out to be 125 µM.
With `N#CSc1cc(C(=O)O)ccc1N`, on Albumin, the “log(PB)” value turned out to be 1.68. The pKa in “physchem [3]” stood at 4.52. The IC50 with Escherichia coli [1] came to 190 µM.
For `Nc1ccc(C(=O)O)cc1Cl`, the “log(PB)” value at Albumin amounted to 1.81. The compound also showed a Rm in data set [2] of 2.38. This compound returned a pKa in “physchem [3]” of 4.35. The IC50 in the data set on Escherichia coli [1] was found to be 100 µM.
For the compound `Nc1ccc(C(=O)O)c(C(=O)O)c1`, the “log(PB)” value on Albumin turned out to be 0.45. In the data set on Escherichia coli [1], the IC50 worked out at 120 µM.
For the compound `CCCCOc1cc(N)ccc1C(=O)O`, the “log(PB)” value on Albumin is 1.69. In data set [2], the Rm stood at 2.4. Further, the solubility result in data set [6] was “soluble”. In “physchem [3]”, this compound had a pKa of 5.25. For the same compound, the IC50 in the data set with Escherichia coli [1] stood at 125 µM.
In the case of `CCOc1cc(N)ccc1C(=O)O`, the “log(PB)” value on Albumin worked out at 1.56. In [2], this compound returned a Rm of 1.31. Further, the solubility result in data set [6] is listed as “soluble”. Further, the pKa in “physchem [3]” was 5.09. Also, in the data set with Escherichia coli [1], the IC50 was found to be 130 µM.
As for `COc1cc(N)ccc1C(=O)O`, at Albumin, the “log(PB)” value worked out at 1.26. For the same compound, the pKa in the data set “physchem [3]” was determined as 5.04; in the data set “physchem [5]” it was 5.1. Moreover, in the data set with Escherichia coli [1], the IC50 turned out to be 100 µM.
With `Nc1nc2c(c(=O)[nH]1)N=C(CNc1ccc(C(=O)O)cc1)CN2`, the outcome in the data set on Escherichia coli [9] and with Escherichia coli [10] was Active.
On to `Nc1nc(=O)c2nc(CNc3ccc(C(=O)N[C@@H](CCC(=O)O)C(=O)O)cc3)cnc2[nH]1`, for which the outcome in the data set with Enterococcus faecalis [7] was Active.
As to `Cc1cc(N)ccc1C(=O)O`, at Albumin, the “log(PB)” value came to 1.16. In addition, in [2], the Rm is 1.73. The compound also displayed a pKa in “physchem [3]” of 4.83. Further, the IC50 in the data set on Escherichia coli [1] was determined as 30 µM.
Consider `Cl.Nc1ccc(C(=O)O)c(N)c1`, for which the “log(PB)” value at Albumin is given as 1. In the data set “physchem [3]”, the pKa was 5.81. The IC50 with Escherichia coli [1] was determined as 3.5 µM.
For the compound `Nc1nc(=O)c2nc(CNc3ccc(C(=O)O)c(F)c3)cnc2[nH]1`, the result with Enterococcus faecalis [7] was Active.
Regarding `Nc1ccc(C(=O)O)cc1Br`, the “log(PB)” value on Albumin came to 1.89. Also, the Rm in data set [2] was 2.85. Moreover, the pKa amounted to 4.24 in “physchem [3]” and 4.31 in “physchem [5]”. The IC50 in the data set with Escherichia coli [1] is 110 µM.
The corresponding values for `Nc1ccc(C(=O)O)c([N+](=O)[O-])c1` are 1.33, 2.3, 2.78, 3.22 and 100 µM.
As to `Nc1nc(O)c2c(n1)NCC(CNc1ccc(C(=O)O)cc1F)=N2`, the outcome in the data set with Escherichia coli [9] and in the data set with Escherichia coli [10] was Active.
Take `Cl.Nc1ccc(C(=O)O)cc1N`: on Albumin, the “log(PB)” value worked out at 0.95. Further, the pKa in the data set “physchem [3]” was 4.84. The IC50 in the data set on Escherichia coli [1] is 40 µM.
In data set [2], `CCCCCCCOc1cc(N)ccc1C(=O)O` showed a Rm of 3.77. Besides, in data set [6], the solubility result is given as “soluble”. Besides, the pKa in the data set “physchem [3]” was 5.3. Moreover, in the data set with Escherichia coli [1], the IC50 amounted to 90 µM.
As to `Nc1nc(O)c2nc(CNc3ccc(C(=O)O)cc3)cnc2n1`, in the data set on Enterococcus faecalis [7], the outcome was Active.

Usually pKa stands for the negative logarithm of the acid dissociation constant. Higher therefore signals a weaker acid or stronger base.
